{
  "source": "ChEMBL document CHEMBL1201862",
  "about": "“PubChem BioAssay data set” (2004)",
  "key": {"Candida albicans": {"test_system": "Candida albicans", "assay": "Candida growth inhibition combined with fluconazole – CaCi-2 strain, Alamar Blue, dry powder, set 3, dose response (AID 488907)", "assay_type": "functional, organism-based"}, "[1]": {"assay": "viability of HCT116 lacking mutant beta-catenin – cell-based, human colon tumor, dose response (AID 1045);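 further: HCT116 colon tumor cells with beta catenin knocked out; cells exposed to compound for 60 hours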", "assay_type": "functional"}, "[2]": {"molecular_target": "T1, Microphthalmia-associated transcription factor (Homo sapiens, UniProt O75030)", "T1 sequence (O75030 whole entry)": "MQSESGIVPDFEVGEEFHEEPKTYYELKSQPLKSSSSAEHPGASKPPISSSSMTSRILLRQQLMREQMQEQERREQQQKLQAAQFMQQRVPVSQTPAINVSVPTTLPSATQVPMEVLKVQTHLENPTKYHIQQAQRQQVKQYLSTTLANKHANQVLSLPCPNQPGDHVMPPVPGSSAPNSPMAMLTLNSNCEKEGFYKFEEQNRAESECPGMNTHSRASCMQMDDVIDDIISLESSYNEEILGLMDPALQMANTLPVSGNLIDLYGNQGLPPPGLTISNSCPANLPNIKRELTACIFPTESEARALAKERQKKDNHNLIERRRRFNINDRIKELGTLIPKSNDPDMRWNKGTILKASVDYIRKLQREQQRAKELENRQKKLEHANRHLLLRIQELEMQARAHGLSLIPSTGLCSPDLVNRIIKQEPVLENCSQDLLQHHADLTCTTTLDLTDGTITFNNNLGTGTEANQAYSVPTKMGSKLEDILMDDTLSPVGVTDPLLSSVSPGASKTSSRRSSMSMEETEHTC", "assay": "reducers of TRPM1 reporter luminescence, concentration series – cell-based, SK-MEL-5, cherry-picked, set 3, MITF inhibitor project, dose response (AID 493073)", "assay_type": "functional"}, "[3]": {"assay": "viability of PTEN-deleted HCT116 cells – cell-based, HCT116 PTEN knockout, dose response (AID 1047);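 further: HCT116 colon tumor cells with PTEN knocked out; cells exposed to compound for 60 hours before readout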", "assay_type": "functional"}, "A-375 [4]": {"test_system": "A-375", "assay": "MITF: Counter assay: A375 proliferation Measured in Cell-Based System Using Plate Reader - 2084-03_Inhibitor_Dose_DryPowder_Activity. [Related pubchem assays (depositor defined):AID488944]", "assay_type": "functional", "conditions": "Homo sapiens"}, "[5]": {"assay": "HIV-1 AD8 envelope cell-cell fusion blockers – cherry-pick, dose response (AID 652062);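 further: potency is for inhibitors of fusion seen as a drop in luminescence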", "assay_type": "functional, cell-based"}, "[6]": {"assay": "off-target signal loss in HeLa-CEM21 co-culture – HeLa F-luc CTL cells, cherry-picked, counter-screen for HIV-1 Env fusion inhibitor project, dose response (AID 652040);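 further: potency for signal decrease marking cytotoxic or nonspecific inhibition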", "assay_type": "functional, cell-based"}, "cells": {"assay": "cells", "assay_type": "functional, cell-based", "conditions": "HEK-CNG"}, "[7]": {"assay": "viability loss in CEM21 cells – cell-based, CellTiter-Glo luminescence, cherry-picked, cytotoxicity control for viral fusion inhibitor project, dose response (AID 652042);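 further: potency for signal decrease meaning cytotoxicity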", "assay_type": "functional"}, "[8]": {"assay": "HEK-293T viability loss, compound-treated – cell-based, uHTS hits, cytotoxicity control for B/T-cell NF-kB inhibitor project, dose response (AID 489019);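 further: IC50 reflects cytotoxicity as loss of cell viability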", "assay_type": "functional"}, "BJ [9]": {"test_system": "BJ", "assay": "BJ-TERT fibroblast viability loss – cell-based, RAS-independent, luminescence, dose response (AID 1933)", "assay_type": "functional", "conditions": "Homo sapiens"}, "[10]": {"assay": "blockers of HIV-1 envelope-mediated cell-cell fusion – cherry-pick, dose response (AID 652057)", "assay_type": "functional, cell-based"}, "INS1": {"test_system": "INS1", "assay": "INS-1E survival protection against cytokine death – cell-based, luminescence, retest, dose response (AID 449756);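 further: cell death triggered by IL-1 beta plus TNF-alpha plus IFN-gamma mixture; protective hits raise ATP signal compared with cytokine alone wells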", "assay_type": "functional", "conditions": "Rattus norvegicus"}, "[11]": {"assay": "DRD fibroblast viability loss – cell-based, non-viral oncogenic, luminescence, dose response (AID 1934)", "assay_type": "functional", "conditions": "Homo sapiens"}, "[12]": {"assay": "blockers of HIV-1 ZM109 envelope-driven cell-cell fusion – HeLa effector, CEM target cells, luciferase, cherry-pick, dose response (AID 652058)", "assay_type": "functional, cell-based"}, "Jurkat": {"test_system": "Jurkat", "assay": "blockers of NF-kB activation in T cells – Jurkat, luciferase reporter, luminescence, B- and T-cell, dose response (AID 489004);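 further: NF-kB luciferase reporter Jurkat cells stimulated with PMA plus ionomycin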", "assay_type": "functional, cell-based", "conditions": "Homo sapiens"}, "BJ [13]": {"test_system": "BJ", "assay": "BJ-TERT-LT-ST fibroblast viability loss – cell-based, RAS-independent, luminescence, dose response (AID 1935);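 further: BJ fibroblasts immortalized with TERT plus LT and ST oncogenes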", "assay_type": "functional", "conditions": "Homo sapiens"}, "Galanin receptor type 3": {"molecular_target": "Galanin receptor type 3 (Homo sapiens, UniProt O60755)", "sequence (O60755 whole entry)": "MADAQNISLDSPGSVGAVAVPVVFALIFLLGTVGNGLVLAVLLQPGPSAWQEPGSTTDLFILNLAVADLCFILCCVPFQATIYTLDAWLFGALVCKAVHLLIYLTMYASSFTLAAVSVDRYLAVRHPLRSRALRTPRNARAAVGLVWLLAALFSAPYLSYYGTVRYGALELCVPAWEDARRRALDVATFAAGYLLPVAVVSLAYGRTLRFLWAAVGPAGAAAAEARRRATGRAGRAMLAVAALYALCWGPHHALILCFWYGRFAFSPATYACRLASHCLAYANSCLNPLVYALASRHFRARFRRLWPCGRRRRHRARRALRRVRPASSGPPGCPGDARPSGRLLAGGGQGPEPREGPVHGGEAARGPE", "assay": "Fluorescence-based cell-based primary high throughput dose response assay to identify antagonists of the Galanin Receptor 3 (GalR3).", "assay_type": "functional"}, "BJ [14]": {"test_system": "BJ", "assay": "cells", "assay_type": "functional, cell-based", "conditions": "Homo sapiens"}, "[15]": {"assay": "viability loss in HeLa cells – cytotoxicity control for MgcRacGAP inhibitor project, dose response (AID 624300)", "assay_type": "functional"}, "[16]": {"molecular_target": "T2, Rac GTPase-activating protein 1 (Homo sapiens, UniProt Q9H0H5)", "T2 sequence (Q9H0H5 whole entry)": "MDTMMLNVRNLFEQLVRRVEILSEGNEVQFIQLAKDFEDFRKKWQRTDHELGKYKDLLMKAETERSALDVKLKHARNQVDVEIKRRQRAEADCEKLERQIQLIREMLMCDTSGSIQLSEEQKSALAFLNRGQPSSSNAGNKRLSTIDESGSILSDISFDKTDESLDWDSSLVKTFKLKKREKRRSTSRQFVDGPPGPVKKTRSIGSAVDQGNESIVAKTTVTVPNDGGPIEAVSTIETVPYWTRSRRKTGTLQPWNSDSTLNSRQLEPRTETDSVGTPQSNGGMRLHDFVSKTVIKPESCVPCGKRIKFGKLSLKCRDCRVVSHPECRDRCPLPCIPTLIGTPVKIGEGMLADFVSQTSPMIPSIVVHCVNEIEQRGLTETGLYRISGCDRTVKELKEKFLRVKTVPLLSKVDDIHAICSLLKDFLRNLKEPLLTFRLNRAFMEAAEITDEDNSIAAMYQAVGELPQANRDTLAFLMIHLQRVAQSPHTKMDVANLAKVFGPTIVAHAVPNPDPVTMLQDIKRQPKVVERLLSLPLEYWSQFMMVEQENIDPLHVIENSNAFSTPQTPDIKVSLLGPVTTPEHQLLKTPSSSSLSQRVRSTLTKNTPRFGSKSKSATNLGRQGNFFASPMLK", "assay": "blockers of MgcRacGAP-driven Rac1 GTP hydrolysis – biochemical, ADP Hunter fluorescence, primary and confirmatory, confirmation (AID 624330)", "assay_type": "functional"}, "A-375 [17]": {"test_system": "A-375", "assay": "proliferation inhibition in MITF-low A375 cells – cell-based, cherry-pick samples, set 2, counter-screen for MITF modulator project, dose response (AID 540335)", "assay_type": "functional", "conditions": "Homo sapiens"}},
  "note": "Active and inactive are the calls of the source.",
  "data": [
    {"smiles": "COc1cccnc1N1CCN(C(=O)c2ccc(Cl)cc2)CC1", "values": [
      {"measurement": "AC50", "setting": "Candida albicans", "value": "12.3 µM (active)"}
    ]},
    {"smiles": "Cc1ccc(Cn2c(=N)n(CC(=O)c3ccc([N+](=O)[O-])cc3)c3ccccc32)cc1", "values": [
      {"measurement": "EC50", "setting": "[1]", "value": "4.07 µM (active)"},
      {"measurement": "AC50", "setting": "[2]", "value": "6.42 µM (active)"},
      {"measurement": "EC50", "setting": "[3]", "value": "5.32 µM (active)"},
      {"measurement": "AC50", "setting": "A-375 [4]", "value": "33.5 µM (active)"}
    ]},
    {"smiles": "CCCCCCCCCn1ccc(=N)cc1", "values": [
      {"measurement": "AC50", "setting": "[5]", "value": "0.848 µM (active)"},
      {"measurement": "AC50", "setting": "[6]", "value": "2.39 µM (active)"},
      {"measurement": "EC50", "setting": "cells", "value": "> 29.9 µM (inactive)"},
      {"measurement": "AC50", "setting": "[7]", "value": "24.1 µM (active)"},
      {"measurement": "IC50", "setting": "[8]", "value": "> 80 µM (inactive)"},
      {"measurement": "EC50", "setting": "BJ [9]", "value": "9.76 µM (inconclusive)"},
      {"measurement": "AC50", "setting": "[10]", "value": "8.77 µM (active)"},
      {"measurement": "AC50", "setting": "INS1", "value": "0.48 µM (active)"},
      {"measurement": "EC50", "setting": "[11]", "value": "9.21 µM (active)"},
      {"measurement": "AC50", "setting": "[12]", "value": "2 µM (active)"},
      {"measurement": "IC50", "setting": "Jurkat", "value": "6.34 µM (active)"},
      {"measurement": "EC50", "setting": "BJ [13]", "value": "> 150 µM (inconclusive)"},
      {"measurement": "IC50", "setting": "Galanin receptor type 3", "value": "1.95 µM (active)"},
      {"measurement": "EC50", "setting": "BJ [14]", "value": "11.9 µM (active)"}
    ]},
    {"smiles": "CN(C)CCNc1ccc2nnn3c4ccc(O)cc4c(=O)c1c23", "values": [
      {"measurement": "CC50", "setting": "[15]", "value": "56.5 µM (active)"},
      {"measurement": "AC50", "setting": "[2]", "value": "4.73 µM (active)"},
      {"measurement": "IC50", "setting": "[16]", "value": "62.6 µM (active)"},
      {"measurement": "AC50", "setting": "A-375 [17]", "value": "46 µM (active)"}
    ]}
  ]
}
